These are literature values, as cited in patent US11622991B2, “Protocol for treatment of lupus nephritis” (Aurinia Pharmaceuticals Inc., priority 2017, dated 2023).

The series deals with lupus nephritis. The note with it: standard of care for LN; cited from earlier work.

As to `O=P1(N(CCCl)CCCl)NCCCO1` (centres unmarked) [cyclophosphamide], the “partial remission, cases” value was “approximately 50%”. Take `COc1c(C)c2c(c(O)c1C/C=C(\C)CCC(=O)OCCN1CCOCC1)C(=O)OC2` [mycophenolate mofetil]: the “partial remission, cases” value is on record as “approximately 50%”.
